Source: patent US20090226500A1, “SUTURES AND ANTI-SCARRING AGENTS” (Angiotech Pharmaceuticals, Inc, priority 2006, published 2009)

These compounds were tested on K. pneumoniae ATCC13883 C238 (assay: MIC microtitre broth dilution, K. pneumoniae). Settings: K. pneumoniae ATCC13883 C238 wt Gram−, 24 h.
Type: cell-based
Procedure: (§1) MIC assays were conducted essentially as described by Amsterdam, D 1996, “Susceptibility testing of antimicrobials in liquid media”, p. 52-111, in Loman, V, ed. Antibiotics in laboratory medicine, 4th ed Williams and Wilkins, Baltimore, Md.

Row | SMILES | Minimum inhibitory concentration
1 | CC[C@@]1(O)C(=O)OCc2c1cc1n(c2=O)Cc2cc3ccccc3nc2-1 [camptothecin] | N
2 | NC(=O)NO [hydroxyurea] | N
3 | Nc1ncnc2c1ccn2[C@@H]1O[C@H](CO)[C@@H](O)[C@H]1O [tubercidin] | N
4 | O=c1[nH]cc(F)c(=O)[nH]1 [5-fluorouracil] | 10^−6 Molar
5 | COc1cc([C@@H]2c3cc4c(cc3[C@@H](O[C@@H]3O[C@@H]5CO[C@@H](C)O[C@H]5[C@H](O)[C@H]3O)[C@H]3COC(=O)[C@H]23)OCO4)cc(OC)c1O [etoposide] | 10^−5 Molar
6 | N.N.[Cl][Pt][Cl] [cisplatin] | N
7 | Nc1ccn([C@@H]2O[C@H](CO)[C@@H](O)[C@@H]2O)c(=O)n1 [cytarabine] | N
8 | COc1cccc2c1C(=O)c1c(O)c3c(c(O)c1C2=O)C[C@@](O)(C(=O)CO)C[C@@H]3O[C@H]1C[C@H](N)[C@H](O)[C@H](C)O1 [doxorubicin] | 10^−6 Molar

What follows are compounds tested on TNFα production by THP-1 cells (assay: TNF-alpha production by macrophages). Settings: THP-1 cells stimulated with opsonized zymosan, 24 hours; read-out: IC50 TNFα production.
Type: cell-based, human
Procedure: The human macrophage cell line, THP-1 was plated in a 12-well plate such that each well contains 1×10^6 cells in 2 ml of media containing 10% FCS. Opsonized zymosan was prepared by resuspending 20 mg of zymosan A in 2 ml of ddH2O and homogenizing until a uniform suspension was obtained. Homogenized zymosan was pelleted at 250 g and resuspended in 4 ml of human serum for a final concentration of 5 mg/ml and incubated in a 37° C. water bath for 20 minutes to enable opsonization.
THP-1 cells were stimulated to produce TNFα by the addition of 1 mg/ml opsonized zymosan. […] Each drug concentration was tested in triplicate wells. Plates were incubated at 37° C. for 24 hours.
After a 24-hour stimulation, supernatants were collected to quantify TNFα production. TNFα concentrations in the supernatants were determined by ELISA using recombinant human TNFα to obtain a standard curve A 96-well MaxiSorb plate was coated with 100 μL of anti-human TNFα Capture Antibody diluted in Coating Buffer (0.1M sodium carbonate pH 9 5) overnight at 4° C. The dilution of Capture Antibody used was lot-specific and was determined empirically. Capture antibody was then aspirated and the plate washed 3 times with Wash Buffer (PBS, 0.05% TWEEN-20) Plates were blocked for 1 hour at room temperature with 200 μL/well of Assay Diluent (PBS, 10% FCS pH 7.0). After blocking, plates were washed 3 times with Wash Buffer. […] Sample supernatants and standards were assayed in triplicate and were incubated at room temperature for 2 hours after addition to the plate coated with Capture Antibody. The plates were washed 5 times and incubated with 100 μL of Working Detector (biotinylated anti-human TNFα detection antibody+avidin-HRP) for 1 hour at room temperature. Following this incubation, the plates were washed 7 times and 100 μL of Substrate Solution (tetramethylbenzidine, H2O2) was added to plates and incubated for 30 minutes at room temperature. […] Mean absorbance was determined from triplicate data readings and the mean background was subtracted. TNFα concentration values were obtained from the standard curve.

Row | SMILES | IC50 [nM]
9 | C/C(=N\N=C(N)N)c1cc(NC(=O)CCCCCCCCC(=O)Nc2cc(/C(C)=N/N=C(N)N)cc(/C(C)=N/N=C(N)N)c2)cc(/C(C)=N/N=C(N)N)c1 [CNI-1493] | 0.15

Each compound was assayed on E. coli UB1005 C498 (assay: MIC microtitre broth dilution, E. coli). Settings: E. coli UB1005 C498 wt Gram−, 24 h.
Type: cell-based
Procedure: as §1

Row | SMILES | Minimum inhibitory concentration
10 | CC[C@@]1(O)C(=O)OCc2c1cc1n(c2=O)Cc2cc3ccccc3nc2-1 [camptothecin] | N
11 | NC(=O)NO [hydroxyurea] | N
12 | Nc1ncnc2c1ccn2[C@@H]1O[C@H](CO)[C@@H](O)[C@H]1O [tubercidin] | N
13 | O=c1[nH]cc(F)c(=O)[nH]1 [5-fluorouracil] | 10^−6 Molar
14 | COc1cc([C@@H]2c3cc4c(cc3[C@@H](O[C@@H]3O[C@@H]5CO[C@@H](C)O[C@H]5[C@H](O)[C@H]3O)[C@H]3COC(=O)[C@H]23)OCO4)cc(OC)c1O [etoposide] | N
15 | N.N.[Cl][Pt][Cl] [cisplatin] | N
16 | Nc1ccn([C@@H]2O[C@H](CO)[C@@H](O)[C@@H]2O)c(=O)n1 [cytarabine] | N
17 | COc1cccc2c1C(=O)c1c(O)c3c(c(O)c1C2=O)C[C@@](O)(C(=O)CO)C[C@@H]3O[C@H]1C[C@H](N)[C@H](O)[C@H](C)O1 [doxorubicin] | 10^−4 Molar

The compounds below were run on MCP-1 production by THP-1 cells (assay: MCP-1 production by macrophages). Settings: THP-1 cells stimulated with opsonized zymosan, 24 hours; read-out: IC50 MCP-1 production.
Type: cell-based, human
Procedure, shortened: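 THP-1 cells (1×10^6/well, 10% FCS) stimulated with 1 mg/ml serum-opsonized zymosan plus compound added from DMSO stocks at 1/1000, 24 h at 37° C. MCP-1 in supernatants quantified by sandwich ELISA (TMB read-out) against a recombinant human MCP-1 standard curve, triplicates, background-subtracted.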

Row | SMILES | IC50 [nM]
18 | Nc1ncnc2c1ccn2[C@@H]1O[C@H](CO)[C@@H](O)[C@H]1O [tubercidin] | 56
19 | C/C(=N\N=C(N)N)c1cc(NC(=O)CCCCCCCCC(=O)Nc2cc(/C(C)=N/N=C(N)N)cc(/C(C)=N/N=C(N)N)c2)cc(/C(C)=N/N=C(N)N)c1 [CNI-1493] | 0.02

What follows are compounds tested on S. epidermidis C621 (assay: MIC microtitre broth dilution, S. epidermidis). Settings: S. epidermidis C621 wt Gram+, 24 h.
Type: cell-based
Procedure: as §1

Row | SMILES | Minimum inhibitory concentration
20 | CC[C@@]1(O)C(=O)OCc2c1cc1n(c2=O)Cc2cc3ccccc3nc2-1 [camptothecin] | 10^−4 Molar
21 | NC(=O)NO [hydroxyurea] | N
22 | Nc1ncnc2c1ccn2[C@@H]1O[C@H](CO)[C@@H](O)[C@H]1O [tubercidin] | N
23 | O=c1[nH]cc(F)c(=O)[nH]1 [5-fluorouracil] | 10^−7 Molar
24 | COc1cc([C@@H]2c3cc4c(cc3[C@@H](O[C@@H]3O[C@@H]5CO[C@@H](C)O[C@H]5[C@H](O)[C@H]3O)[C@H]3COC(=O)[C@H]23)OCO4)cc(OC)c1O [etoposide] | 10^−6 Molar
25 | N.N.[Cl][Pt][Cl] [cisplatin] | N
26 | Nc1ccn([C@@H]2O[C@H](CO)[C@@H](O)[C@@H]2O)c(=O)n1 [cytarabine] | N
27 | COc1cccc2c1C(=O)c1c(O)c3c(c(O)c1C2=O)C[C@@](O)(C(=O)CO)C[C@@H]3O[C@H]1C[C@H](N)[C@H](O)[C@H](C)O1 [doxorubicin] | 10^−6 Molar

What follows are compounds tested on S. aureus ATCC25923 C622 (assay: MIC microtitre broth dilution, S. aureus). Settings: S. aureus ATCC25923 C622 wt Gram+, 24 h.
Type: cell-based
Procedure: as §1

Row | SMILES | Minimum inhibitory concentration
28 | CC[C@@]1(O)C(=O)OCc2c1cc1n(c2=O)Cc2cc3ccccc3nc2-1 [camptothecin] | N
29 | NC(=O)NO [hydroxyurea] | N
30 | Nc1ncnc2c1ccn2[C@@H]1O[C@H](CO)[C@@H](O)[C@H]1O [tubercidin] | N
31 | O=c1[nH]cc(F)c(=O)[nH]1 [5-fluorouracil] | 10^−7 Molar
32 | COc1cc([C@@H]2c3cc4c(cc3[C@@H](O[C@@H]3O[C@@H]5CO[C@@H](C)O[C@H]5[C@H](O)[C@H]3O)[C@H]3COC(=O)[C@H]23)OCO4)cc(OC)c1O [etoposide] | 10^−5 Molar
33 | N.N.[Cl][Pt][Cl] [cisplatin] | N
34 | Nc1ccn([C@@H]2O[C@H](CO)[C@@H](O)[C@@H]2O)c(=O)n1 [cytarabine] | N
35 | COc1cccc2c1C(=O)c1c(O)c3c(c(O)c1C2=O)C[C@@](O)(C(=O)CO)C[C@@H]3O[C@H]1C[C@H](N)[C@H](O)[C@H](C)O1 [doxorubicin] | 10^−5 Molar

These compounds were tested on P. aeruginosa PAE/K799 H187 (assay: MIC microtitre broth dilution, P. aeruginosa). Settings: P. aeruginosa PAE/K799 H187 wt Gram−, 24 h.
Type: cell-based
Procedure: as §1

Row | SMILES | Minimum inhibitory concentration
36 | CC[C@@]1(O)C(=O)OCc2c1cc1n(c2=O)Cc2cc3ccccc3nc2-1 [camptothecin] | N
37 | NC(=O)NO [hydroxyurea] | 10^−4 Molar
38 | Nc1ncnc2c1ccn2[C@@H]1O[C@H](CO)[C@@H](O)[C@H]1O [tubercidin] | N
39 | O=c1[nH]cc(F)c(=O)[nH]1 [5-fluorouracil] | 10^−5 Molar
40 | COc1cc([C@@H]2c3cc4c(cc3[C@@H](O[C@@H]3O[C@@H]5CO[C@@H](C)O[C@H]5[C@H](O)[C@H]3O)[C@H]3COC(=O)[C@H]23)OCO4)cc(OC)c1O [etoposide] | N
41 | N.N.[Cl][Pt][Cl] [cisplatin] | 10^−4 Molar
42 | Nc1ccn([C@@H]2O[C@H](CO)[C@@H](O)[C@@H]2O)c(=O)n1 [cytarabine] | N
43 | COc1cccc2c1C(=O)c1c(O)c3c(c(O)c1C2=O)C[C@@](O)(C(=O)CO)C[C@@H]3O[C@H]1C[C@H](N)[C@H](O)[C@H](C)O1 [doxorubicin] | 10^−5 Molar

Each compound was assayed on Smooth muscle cells (assay: Proliferation of smooth muscle cells). Settings: 72 hours, CYQUANT; read-out: IC50 proliferation of smooth muscle cells.
Type: cell-based
Procedure, shortened: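 Smooth muscle cells at 600 cells/well, exposed to paclitaxel (DMSO stocks 10^−8 to 10^−2 M) in triplicate for 72 h at 37 °C. Proliferation read with CyQUANT GR dye in lysis buffer.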

Row | SMILES | IC50 [nM]
44 | Nc1ncnc2c1ccn2[C@@H]1O[C@H](CO)[C@@H](O)[C@H]1O [tubercidin] | 30
45 | COc1cc([C@@H]2c3cc4c(cc3[C@@H](O[C@@H]3O[C@@H]5CO[C@@H](C)O[C@H]5[C@H](O)[C@H]3O)[C@H]3COC(=O)[C@H]23)OCO4)cc(OC)c1O [etoposide] | 320
46 | Nc1ccn([C@@H]2O[C@H](CO)[C@@H](O)[C@@H]2O)c(=O)n1 [cytarabine] | 85
47 | COc1cccc2c1C(=O)c1c(O)c3c(c(O)c1C2=O)C[C@@](O)(C(=O)CO)C[C@@H]3O[C@H]1C[C@H](N)[C@H](O)[C@H](C)O1 [doxorubicin] | 64

The compounds below were run on nitric oxide production by macrophages (murine macrophage cell line RAW 264.7) (assay: Nitric oxide production by macrophages). Settings: not given.
Type: cell-based

Row | SMILES | IC50 [nM]
48 | C/C(=N\N=C(N)N)c1cc(NC(=O)CCCCCCCCC(=O)Nc2cc(/C(C)=N/N=C(N)N)cc(/C(C)=N/N=C(N)N)c2)cc(/C(C)=N/N=C(N)N)c1 [CNI-1493] | 249

These compounds were tested on S. pyogenes C721 (assay: MIC microtitre broth dilution, S. pyogenes). Settings: S. pyogenes C721 wt Gram+, Todd Hewitt broth.
Type: cell-based
Procedure: as §1

Row | SMILES | Minimum inhibitory concentration
49 | CC[C@@]1(O)C(=O)OCc2c1cc1n(c2=O)Cc2cc3ccccc3nc2-1 [camptothecin] | N
50 | NC(=O)NO [hydroxyurea] | 10^−4 Molar
51 | Nc1ncnc2c1ccn2[C@@H]1O[C@H](CO)[C@@H](O)[C@H]1O [tubercidin] | N
52 | O=c1[nH]cc(F)c(=O)[nH]1 [5-fluorouracil] | 10^−4 Molar
53 | COc1cc([C@@H]2c3cc4c(cc3[C@@H](O[C@@H]3O[C@@H]5CO[C@@H](C)O[C@H]5[C@H](O)[C@H]3O)[C@H]3COC(=O)[C@H]23)OCO4)cc(OC)c1O [etoposide] | 10^−5 Molar
54 | N.N.[Cl][Pt][Cl] [cisplatin] | N
55 | Nc1ccn([C@@H]2O[C@H](CO)[C@@H](O)[C@@H]2O)c(=O)n1 [cytarabine] | N
56 | COc1cccc2c1C(=O)c1c(O)c3c(c(O)c1C2=O)C[C@@](O)(C(=O)CO)C[C@@H]3O[C@H]1C[C@H](N)[C@H](O)[C@H](C)O1 [doxorubicin] | 10^−7 Molar
